Legend:
Type in all cases: in vivo
AVEFA (Avena fatua) [1] = test: Pre-emergence herbicidal effect against AVEFA; settings: 80 g/ha, scored visually after 3 weeks
Text: (§1) Seeds of monocotyledonous and dicotyledonous weed plants and crop plants are laid out in sandy loam soil in wood-fiber pots and covered with soil. The compounds of the invention, formulated in the form of wettable powders (WP) or as emulsion concentrates (EC), are then applied to the surface of the covering soil as aqueous suspension or emulsion at a water application rate equating to 600 to 800 l/ha with addition of 0.2% wetting agent. After the treatment, the pots are placed in a greenhouse and kept under good growth conditions for the trial plants. The damage to the test plants is scored visually after a test period of 3 weeks by comparison with untreated controls (herbicidal activity in percent (%): 100% activity=the plants have died, 0% activity=like control plants).

VIOTR (Viola tricolor) [2] = test: Post-emergence herbicidal action against VIOTR; settings: visual assessment after about 3 weeks
Experimental: (§2) Seeds of monocotyledonous and dicotyledonous weed and crop plants are laid out in sandy loam soil in wood-fiber pots, covered with soil and cultivated in a greenhouse under good growth conditions. 2 to 3 weeks after sowing, the trial plants are treated at the one-leaf stage. The compounds of the invention, formulated in the form of wettable powders (WP) or as emulsion concentrates (EC), are then sprayed onto the green parts of the plants as aqueous suspension or emulsion at a water application rate equating to 600 to 800 l/ha with addition of 0.2% wetting agent. After the test plants have been left to stand in the greenhouse under optimal growth conditions for about 3 weeks, the action of the preparations is assessed visually in comparison to untreated controls (herbicidal action in percent (%): 100% activity=the plants have died, 0% activity=like control plants).

[3] = test system: AMARE (Amaranthus retroflexus); test: Post-emergence herbicidal action against AMARE; settings: visual assessment after about 3 weeks
Experimental: as §2

AVEFA (Avena fatua) [4] = test: Post-emergence herbicidal action against AVEFA; settings: visual assessment after about 3 weeks
Experimental: as §2

VIOTR (Viola tricolor) [5] = test: Pre-emergence herbicidal effect against VIOTR; settings: scored visually after 3 weeks
Text: as §1

KCHSC (Kochia scoparia) [6] = test: Post-emergence herbicidal action against KCHSC; settings: visual assessment after about 3 weeks
Experimental: as §2

[7] = test system: AMARE (Amaranthus retroflexus); test: Pre-emergence herbicidal effect against AMARE; settings: scored visually after 3 weeks
Text: as §1

[8] = test system: MATIN (Matricaria inodora); test: Pre-emergence herbicidal effect against MATIN; settings: scored visually after 3 weeks
Text: as §1

[9] = test system: ECHCG (Echinochloa crus-galli); test: Post-emergence herbicidal action against ECHCG; settings: visual assessment after about 3 weeks
Experimental: as §2

[10] = test system: ABUTH (Abutylon threophrasti); test: Pre-emergence herbicidal effect against ABUTH; settings: scored visually after 3 weeks
Text: as §1

SETVI (Setaria viridis) [11] = test: Post-emergence herbicidal action against SETVI; settings: visual assessment after about 3 weeks
Experimental: as §2

[12] = test system: POLCO (Polygonum convolvulus); test: Post-emergence herbicidal action against POLCO; settings: 80 g/ha, visual assessment after about 3 weeks
Experimental: as §2

VERPE (Veronica persica) [13] = test: Pre-emergence herbicidal effect against VERPE; settings: scored visually after 3 weeks
Text: as §1

[14] = test system: POLCO (Polygonum convolvulus); test: Pre-emergence herbicidal effect against POLCO; settings: 80 g/ha, scored visually after 3 weeks
Text: as §1

[15] = test system: ALOMY (Alopecurus myosuroides); test: Pre-emergence herbicidal effect against ALOMY; settings: 80 g/ha, scored visually after 3 weeks
Text: as §1

VERPE (Veronica persica) [16] = test: Post-emergence herbicidal action against VERPE; settings: visual assessment after about 3 weeks
Experimental: as §2

[17] = test system: DIGSA (Digitaria sanguinalis); test: Post-emergence herbicidal action against DIGSA; settings: visual assessment after about 3 weeks
Experimental: as §2

[18] = test system: ABUTH (Abutylon threophrasti); test: Post-emergence herbicidal action against ABUTH; settings: visual assessment after about 3 weeks
Experimental: as §2

[19] = test system: DIGSA (Digitaria sanguinalis); test: Pre-emergence herbicidal effect against DIGSA; settings: scored visually after 3 weeks
Text: as §1

SETVI (Setaria viridis) [20] = test: Pre-emergence herbicidal effect against SETVI; settings: scored visually after 3 weeks
Text: as §1

[21] = test system: ECHCG (Echinochloa crus-galli); test: Pre-emergence herbicidal effect against ECHCG; settings: scored visually after 3 weeks
Text: as §1

[22] = test system: PHBPU (Pharbitis purpurea); test: Pre-emergence herbicidal effect against PHBPU; settings: 80 g/ha, scored visually after 3 weeks
Text: as §1

KCHSC (Kochia scoparia) [23] = test: Pre-emergence herbicidal effect against KCHSC; settings: scored visually after 3 weeks
Text: as §1

[24] = test system: MATIN (Matricaria inodora); test: Post-emergence herbicidal action against MATIN; settings: visual assessment after about 3 weeks
Experimental: as §2

LOLRI (Lolium rigidum) = test: Post-emergence herbicidal action against LOLRI; settings: visual assessment after about 3 weeks
Experimental: as §2

[25] = test system: PHBPU (Pharbitis purpurea); test: Post-emergence herbicidal action against PHBPU; settings: 80 g/ha, visual assessment after about 3 weeks
Experimental: as §2

C[S+]([O-])c1c(OC(F)F)ccc(C(=O)Nc2nnco2)c1Cl (racemic) [Example 1-22]
Pre-emergence effect at 80 g/ha against A VEFA in % (AVEFA (Avena fatua) [1]): 80%
Post-emergence effect at 20 g/ha against VIOTR in % (VIOTR (Viola tricolor) [2]; 20 g/ha): 100%
Post-emergence effect at 80 g/ha against VIOTR in % (VIOTR (Viola tricolor) [2]; 80 g/ha): 100%
Post-emergence effect at 20 g/ha against AMARE in % ([3]; 20 g/ha): 100%
Post-emergence effect at 80 g/ha against AMARE in % ([3]; 80 g/ha): 100%
Post-emergence effect at 20 g/ha against A VEFA in % (AVEFA (Avena fatua) [4]; 20 g/ha): 90%
Post-emergence effect at 80 g/ha against AVEFA in % (AVEFA (Avena fatua) [4]; 80 g/ha): 100%
Pre-emergence effect at 20 g/ha against VIOTR in % (VIOTR (Viola tricolor) [5]; 20 g/ha): 100%
Pre-emergence effect at 80 g/ha against VIOTR in % (VIOTR (Viola tricolor) [5]; 80 g/ha): 100%
Post-emergence effect at 20 g/ha against KCHSC in % (KCHSC (Kochia scoparia) [6]; 20 g/ha): 100%
Post-emergence effect at 80 g/ha against KCHSC in % (KCHSC (Kochia scoparia) [6]; 80 g/ha): 100%
Pre-emergence effect at 20 g/ha against AMARE in % ([7]; 20 g/ha): 100%
Pre-emergence effect at 80 g/ha against AMARE in % ([7]; 80 g/ha): 100%
Pre-emergence effect at 20 g/ha against MATIN in % ([8]; 20 g/ha): 100%
Pre-emergence effect at 80 g/ha against MATIN in % ([8]; 80 g/ha): 100%
Post-emergence effect at 20 g/ha against ECHCG in % ([9]; 20 g/ha): 100%
Post-emergence effect at 80 g/ha against ECHCG in % ([9]; 80 g/ha): 100%
Pre-emergence effect at 20 g/ha against ABUTH in % ([10]; 20 g/ha): 80%
Pre-emergence effect at 80 g/ha against ABUTH in % ([10]; 80 g/ha): 100%
Post-emergence effect at 20 g/ha against SETVI in % (SETVI (Setaria viridis) [11]; 20 g/ha): 100%
Post-emergence effect at 80 g/ha against SETVI in % (SETVI (Setaria viridis) [11]; 80 g/ha): 100%
Post-emergence effect at 80 g/ha against POLCO in % [12]: 90%
Pre-emergence effect at 20 g/ha against VERPE in % (VERPE (Veronica persica) [13]; 20 g/ha): 80%
Pre-emergence effect at 80 g/ha against VERPE in % (VERPE (Veronica persica) [13]; 80 g/ha): 90%
Pre-emergence effect at 80 g/ha against POLCO in % [14]: 90%
Pre-emergence effect at 80 g/ha against ALOMY in % [15]: 80%
Post-emergence effect at 20 g/ha against VERPE in % (VERPE (Veronica persica) [16]; 20 g/ha): 90%
Post-emergence effect at 80 g/ha against VERPE in % (VERPE (Veronica persica) [16]; 80 g/ha): 100%
Post-emergence effect at 20 g/ha against DIGSA in % ([17]; 20 g/ha): 100%
Post-emergence effect at 80 g/ha against DIGSA in % ([17]; 80 g/ha): 100%
Post-emergence effect at 20 g/ha against ABUTH in % ([18]; 20 g/ha): 100%
Post-emergence effect at 80 g/ha against ABUTH in % ([18]; 80 g/ha): 100%
Pre-emergence effect at 20 g/ha against DIGSA in % ([19]; 20 g/ha): 100%
Pre-emergence effect at 80 g/ha against DIGSA in % ([19]; 80 g/ha): 100%
Pre-emergence effect at 20 g/ha against SETVI in % (SETVI (Setaria viridis) [20]; 20 g/ha): 90%
Pre-emergence effect at 80 g/ha against SETVI in % (SETVI (Setaria viridis) [20]; 80 g/ha): 100%
Pre-emergence effect at 20 g/ha against ECHCG in % ([21]; 20 g/ha): 90%
Pre-emergence effect at 80 g/ha against ECHCG in % ([21]; 80 g/ha): 100%
Pre-emergence effect at 80 g/ha against PHBPU in % [22]: 80%
Pre-emergence effect at 20 g/ha against KCHSC in % (KCHSC (Kochia scoparia) [23]; 20 g/ha): 100%
Pre-emergence effect at 80 g/ha against KCHSC in % (KCHSC (Kochia scoparia) [23]; 80 g/ha): 100%
Post-emergence effect at 20 g/ha against MATIN in % ([24]; 20 g/ha): 100%
Post-emergence effect at 80 g/ha against MATIN in % ([24]; 80 g/ha): 100%
Post-emergence effect at 80 g/ha against LOLRI in % (LOLRI (Lolium rigidum)): 90%
Post-emergence effect at 80 g/ha against PHBPU in % [25]: 100%
